For this assay, the target named is GHS-R (Homo sapiens, UniProt Q92847). As to the kind of experiment: cell based assay of GHS-R antagonist/agonist activity. On the set-up: key: A refers to a compound having antagonist activity with Ki<100 nM in a cell based assay; B refers to a compound having agonist activity with EC50<100 nM in a cell based assay; C refers to a compound having antagonist activity of Ki>100 nM and <1500 nM in a cell based assay; D refers to a compound having antagonist activity with Ki, <100 nM and agonist activity with EC50<100 nM in a cell-based assay; E refers to other exemplary compounds. As to conditions: GHS-R antagonist Ki and/or agonist EC50 class. The method, boiled down:
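COS-7 cells transfected with GHS-R, labelled with [3H]-myo-inositol, preincubated in 10 mM LiCl buffer pH 7.4, then given compound 45 min at 37 °C; [3H]-IP isolated by anion exchange. Alternatively, CREB-luciferase reporter in transfected HEK293 with 5 h compound exposure. IC50/EC50 by nonlinear regression.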

Sequence of GHS-R (Q92847 whole entry, species assumed): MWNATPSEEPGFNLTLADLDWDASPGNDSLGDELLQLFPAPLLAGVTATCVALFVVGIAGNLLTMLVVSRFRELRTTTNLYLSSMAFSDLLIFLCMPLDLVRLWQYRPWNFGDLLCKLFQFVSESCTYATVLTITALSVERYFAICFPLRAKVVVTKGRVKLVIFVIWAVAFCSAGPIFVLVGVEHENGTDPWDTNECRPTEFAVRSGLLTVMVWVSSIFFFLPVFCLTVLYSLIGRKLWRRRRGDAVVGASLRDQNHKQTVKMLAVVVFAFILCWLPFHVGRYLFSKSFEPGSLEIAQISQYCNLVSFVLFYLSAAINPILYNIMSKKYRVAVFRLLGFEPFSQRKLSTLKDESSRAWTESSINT

Regarding `CN1CCC(C(=O)NC(Cc2ccc3ccccc3c2)C(=O)N2CCC3(CC2)CN(S(C)(=O)=O)c2ccccc23)CC1` (centres unmarked) [Compound 138], the Activity result is “E”.
The result for `CC(C)(C)C(=O)N[C@H](COCc1ccccc1)C(=O)N1CCC2(CC1)CN(S(C)(=O)=O)c1ccccc12` [Compound 44] reads “C (C refers to a compound having antagonist activity of Ki>100 nM and <1500 nM in a cell based assay)”.
The result for `COCCCS(=O)(=O)N[C@H](COCc1ccccc1)C(=O)N1CCC2(CC1)CN(S(C)(=O)=O)c1ccccc12` [Compound 161] reads “E”.
To `CCN(CC)CC(=O)N[C@H](COCc1ccccc1)C(=O)N1CCC2(CC1)CN(S(C)(=O)=O)c1ccccc12` [Compound 90] belongs “E”.
Regarding `CS(=O)(=O)N1CC2(CCN(C(=O)C(COCc3ccccc3)NCC3CCNCC3)CC2)c2ccccc21` (centres unmarked) [Compound 104], the Activity entry is “E”.
To `CN(C)CC(=O)N[C@H](COCc1ccccc1)C(=O)N1CCC2(CC1)CN(S(=O)(=O)Cc1ccccc1)c1ccccc12` [Compound 26] belongs “C (C refers to a compound having antagonist activity of Ki>100 nM and <1500 nM in a cell based assay)”; to `CN(C)CC(=O)N[C@H](COCc1ccccc1)C(=O)N1CCC2(CC1)CN(C(=O)CO)c1ccccc12` [Compound 75], “E”; to `CS(=O)(=O)N1CC2(CCN(C(=O)[C@@H](COCc3ccccc3)NC(=O)NCCN3CCCCC3)CC2)c2ccccc21` [Compound 97], “E”.
The result for `CC(=O)OCC(=O)N1CC2(CCN(C(=O)[C@@H](COCc3ccccc3)NC(=O)CN(C)C)CC2)c2ccccc21` [Compound 71] reads “E”.
Take `CS(=O)(=O)N1CC2(CCN(C(=O)[C@@H](COCc3ccccc3)NC(=O)C3(N)CCCCC3)CC2)c2ccccc21` [Compound 117]: the Activity result is recorded as “E”.
With `CC1=NCCC(C(=O)N[C@H](COCc2ccccc2)C(=O)N2CCC3(CC2)CN(S(C)(=O)=O)c2ccccc23)N1` (some centres unmarked) [Compound 112], the Activity result is given as “E”.
Turning to `CC(C)N1CCC=C(C(=O)N[C@H](COCc2ccccc2)C(=O)N2CCC3(CC2)CN(S(C)(=O)=O)c2ccccc23)C1` [Compound 12], the Activity result is “A (A refers to a compound having antagonist activity with Ki<100 nM in a cell based assay)”.
The result for `CN(C)CCNC(=O)N[C@H](COCc1ccccc1)C(=O)N1CCC2(CC1)CN(S(C)(=O)=O)c1ccccc12` [Compound 94] reads “E”; that for `CCN1CCC[C@@H]1CNC(=O)N[C@H](COCc1ccccc1)C(=O)N1CCC2(CC1)CN(S(C)(=O)=O)c1ccccc12` [Compound 96], “E”; that for `CC(C)CCN1CCC(C(=O)N[C@H](COCc2ccccc2)C(=O)N2CCC3(CC2)CN(S(C)(=O)=O)c2ccccc23)CC1` [Compound 43], “C (C refers to a compound having antagonist activity of Ki>100 nM and <1500 nM in a cell based assay)”.
To `CN1CCC(S(=O)(=O)N[C@H](COCc2ccccc2)C(=O)N2CCC3(C=Cc4ccccc43)CC2)CC1` [Compound 154] belongs “C (C refers to a compound having antagonist activity of Ki>100 nM and <1500 nM in a cell based assay)”; to `COc1cccc(NC(=O)N2CC3(CCN(C(=O)[C@@H](COCc4ccccc4)NC(=O)CN(C)C)CC3)c3ccccc32)c1` [Compound 69], “E”.
Take `CCN(CCS(=O)(=O)N[C@H](COCc1ccccc1)C(=O)N1CCC2(CC1)CN(S(C)(=O)=O)c1ccccc12)C(C)C` [Compound 101]: the Activity entry is “E”.
To `CN(C)CC(=O)N[C@@H](Cc1ccccc1)C(=O)N1CCC2(CC1)CN(S(C)(=O)=O)c1ccccc12` [Compound 124] belongs “E”; to `CCN(CC)CCCS(=O)(=O)N[C@H](COCc1ccccc1)C(=O)N1CCC2(C=Cc3ccccc32)CC1` [Compound 164], “A (A refers to a compound having antagonist activity with Ki<100 nM in a cell based assay)”.
To `CC(C)(C)NCCCS(=O)(=O)N[C@H](COCc1ccccc1)C(=O)N1CCC2(CC1)CN(S(C)(=O)=O)c1ccccc12` [Compound 150] belongs “A (A refers to a compound having antagonist activity with Ki<100 nM in a cell based assay)”.
With `CCN1CC=C(C(=O)N[C@H](COCc2ccccc2)C(=O)N2CCC3(CC2)CN(S(C)(=O)=O)c2ccccc23)CC1` [Compound 100], the Activity result is “E”.
To `CN1CC2(CCN(C(=O)[C@@H](COCc3ccccc3)NC(=O)OC(C)(C)C)CC2)c2ccccc21` [Compound 48] belongs “C (C refers to a compound having antagonist activity of Ki>100 nM and <1500 nM in a cell based assay)”.
The result for `CS(=O)(=O)N1CC2(CCN(C(=O)[C@@H](COCc3ccccc3)NS(=O)(=O)CCCN3CCCC3)CC2)c2ccccc21` [Compound 159] reads “A (A refers to a compound having antagonist activity with Ki<100 nM in a cell based assay)”; that for `COc1cccc(NC(=O)N2CC3(CCN(C(=O)[C@@H](COCc4ccccc4)NC(=O)OC(C)(C)C)CC3)c3ccccc32)c1` [Compound 65], “E”.
To `CN(C)Cc1cccc(C(=O)N[C@H](COCc2ccccc2)C(=O)N2CCC3(CC2)CN(S(C)(=O)=O)c2ccccc23)c1` [Compound 6] belongs “A (A refers to a compound having antagonist activity with Ki<100 nM in a cell based assay)”; to `CS(=O)(=O)N1CC2(CCN(C(=O)[C@@H](COCc3ccccc3)NC(=O)C3(N)CC3)CC2)c2ccccc21` [Compound 120], “E”.
Regarding `CS(=O)(=O)N1CC2(CCN(C(=O)[C@@H](COCc3ccccc3)NC(=S)NCc3ccco3)CC2)c2ccccc21` [Compound 87], the Activity entry was “E”.
The result for `COc1cccc(C(=O)N2CC3(CCN(C(=O)[C@@H](COCc4ccccc4)NC(=O)CN(C)C)CC3)c3ccccc32)c1` [Compound 74] reads “E”; that for `CN([C@H](COCc1ccccc1)C(=O)N1CCC2(CC1)CN(S(C)(=O)=O)c1ccccc12)S(=O)(=O)CCCCl` [Compound 160], “E”.
To `CCN(CC)CCCS(=O)(=O)N(C)[C@H](COCc1ccccc1)C(=O)N1CCC2(CC1)CN(S(C)(=O)=O)c1ccccc12` [Compound 162] belongs “A (A refers to a compound having antagonist activity with Ki<100 nM in a cell based assay)”; to `CC(C)(C)OC(=O)N[C@H](COCc1ccccc1)C(=O)N1CCC2(CC1)CN(C(=O)Cn1ccnc1)c1ccccc12` [Compound 66], “E”.
The result for `CCN1CCC=C(C(=O)N[C@H](COCc2ccccc2)C(=O)N2CCC3(CC2)CN(S(C)(=O)=O)c2ccccc23)C1.Cl` [Compound 2] reads “D (D refers to a compound having antagonist activity with Ki, <100 nM and agonist activity with EC50<100 nM in a cell-based assay)”; that for `CC(=O)N(CC1CCN(C(=O)OC(C)(C)C)CC1)[C@H](COCc1ccccc1)C(=O)N1CCC2(CC1)CN(S(C)(=O)=O)c1ccccc12` [Compound 108], “E”; that for `CC(C)NCCCS(=O)(=O)N[C@H](COCc1ccccc1)C(=O)N1CCC2(CC1)CN(S(C)(=O)=O)c1ccccc12` [Compound 148], “A (A refers to a compound having antagonist activity with Ki<100 nM in a cell based assay)”.
On to `CCN(CC)CCCS(=O)(=O)N[C@H](CCc1ccccc1)C(=O)N1CCC2(CC1)CN(S(C)(=O)=O)c1ccccc12` [Compound 163], for which the Activity result is “A (A refers to a compound having antagonist activity with Ki<100 nM in a cell based assay)”.
To `CC(=O)N(C1CCN(C)CC1)[C@H](COCc1ccccc1)C(=O)N1CCC2(CC1)CN(S(C)(=O)=O)c1ccccc12` [Compound 88] belongs “E”; to `CCCN1CCC(C(=O)N[C@H](COCc2ccccc2)C(=O)N2CCC3(CC2)CN(S(C)(=O)=O)c2ccccc23)CC1` [Compound 38], “C (C refers to a compound having antagonist activity of Ki>100 nM and <1500 nM in a cell based assay)”; to `CN(C)CCS(=O)(=O)N[C@H](COCc1ccccc1)C(=O)N1CCC2(CC1)CN(S(C)(=O)=O)c1ccccc12` [Compound 83], “E”.
The result for `CC(C)(C)OC(=O)N1CC=C(C(=O)N[C@H](COCc2ccccc2)C(=O)N2CCC3(CC2)CN(S(C)(=O)=O)c2ccccc23)CC1` [Compound 98] reads “E”; that for `CS(=O)(=O)N1CC2(CCN(C(=O)[C@@H](COCc3ccccc3)NS(=O)(=O)CCN3CCOCC3)CC2)c2ccccc21` [Compound 144], “E”; that for `CC(=O)NC(C)(C)C(=O)N[C@H](COCc1ccccc1)C(=O)N1CCC2(CC1)CN(S(C)(=O)=O)c1ccccc12` [Compound 126], “B (B refers to a compound having agonist activity with EC50<100 nM in a cell based assay)”.
In the case of `CS(=O)(=O)N1CC2(CCN(C(=O)[C@@H](COCc3ccccc3)NC(=O)C3=NCCN3)CC2)c2ccccc21` [Compound 80], the Activity result is reported as “E”.
To `CS(=O)(=O)N1CC2(CCN(C(=O)[C@@H](COCc3ccccc3)NC(=O)[C@@H]3C=CCN3)CC2)c2ccccc21` [Compound 18] belongs “C (C refers to a compound having antagonist activity of Ki>100 nM and <1500 nM in a cell based assay)”.

Source of the values: patent US7897765B2, “Therapeutic compounds and uses thereof” (Elixir Pharmaceuticals, Inc., priority 2003, dated 2011).
